System: 885512-296-R-J2-PDC complex spheroid growth, % test/control
Experiment: Anticancer human tumor 885512-296-R-J2-PDC patient-derived breast carcinoma cell line growth inhibition [AhR]
Conditions: for IC50: curve of first compound; for viability, T/C: stronger effect = lower value
In short: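 Complex tumor spheroids co-cultured with HUVEC and human MSC stroma; AhR antagonists tested in combination with standard-of-care and investigational agents. Top concentration at or near clinical Cmax (else 10 microM), half-log dilutions; growth expressed as percent test/control.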

[1] = second compound 0.1 µM, first compound 0.0316 µM
[2] = second compound 0.1 µM, first compound 0.1 µM
[3] = second compound 0.1 µM, first compound 0.316 µM
[4] = second compound 0.1 µM, first compound 1 µM
[5] = second compound 0.316 µM, first compound 0.0316 µM
[6] = second compound 0.316 µM, first compound 0.1 µM
[7] = second compound 0.316 µM, first compound 0.316 µM
[8] = second compound 0.316 µM, first compound 1 µM
[9] = second compound 1 µM, first compound 0.0316 µM
[10] = second compound 1 µM, first compound 0.1 µM
[11] = second compound 1 µM, first compound 0.316 µM
[12] = second compound 1 µM, first compound 1 µM
[13] = second compound 3.16 µM, first compound 0.0316 µM
[14] = second compound 3.16 µM, first compound 0.1 µM
[15] = second compound 3.16 µM, first compound 0.316 µM
[16] = second compound 3.16 µM, first compound 1 µM
[17] = second compound 10 µM, first compound 0.0316 µM
[18] = second compound 10 µM, first compound 0.1 µM
[19] = second compound 10 µM, first compound 0.316 µM
[20] = second compound 10 µM, first compound 1 µM
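Note: spheroids exposed to compounds for seven days.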

| Compound | IC50 (second compound 0.1 µM) [µM] | IC50 (second compound 0.316 µM) [µM] | IC50 (second compound 1 µM) [µM] | IC50 (second compound 3.16 µM) [µM] | IC50 (second compound 10 µM) [µM] | viability, T/C [1] [%] | viability, T/C [2] [%] | viability, T/C [3] [%] | viability, T/C [4] [%] | viability, T/C [5] [%] | viability, T/C [6] [%] | viability, T/C [7] [%] | viability, T/C [8] [%] | viability, T/C [9] [%] | viability, T/C [10] [%] | viability, T/C [11] [%] | viability, T/C [12] [%] | viability, T/C [13] [%] | viability, T/C [14] [%] | viability, T/C [15] [%] | also measured |
| --- | --- | --- | --- | --- | --- | --- | --- | --- | --- | --- | --- | --- | --- | --- | --- | --- | --- | --- | --- | --- | --- |
| Nc1ncn(C2CC(O)C(CO)O2)c(=O)n1 (stereo not given) + Cc1cncc(-c2nc(NCCc3c[nH]c4ccccc34)c3ncn(C(C)C)c3n2)c1 | 0.863 | 0.871 | > 1 | 0.354 | < 0.00316 | 101 | 93.6 | 74.4 | 46.4 | 88.9 | 93.7 | 77.7 | 45.9 | 80.7 | 90.4 | 76 | 58.5 | 57.2 | 58.3 | 46 | viability, T/C (second compound 0.1 µM, first compound 0.00316 µM): 93.5%; viability, T/C (second compound 0.1 µM, first compound 0.01 µM): 104%; viability, T/C (second compound 0.316 µM, first compound 0.00316 µM): 101%; viability, T/C (second compound 0.316 µM, first compound 0.01 µM): 113%; viability, T/C (second compound 1 µM, first compound 0.00316 µM): 91.5%; viability, T/C (second compound 1 µM, first compound 0.01 µM): 86%; viability, T/C (second compound 3.16 µM, first compound 0.00316 µM): 67.8%; viability, T/C (second compound 3.16 µM, first compound 0.01 µM): 68.5%; viability, T/C [16]: 48.1%; viability, T/C (second compound 10 µM, first compound 0.00316 µM): 18.5%; viability, T/C (second compound 10 µM, first compound 0.01 µM): 20.6%; viability, T/C [17]: 20.7%; viability, T/C [18]: 11.7%; viability, T/C [19]: 14.9%; viability, T/C [20]: 12.7% |
| O=C(C=Cc1cccc(S(=O)(=O)Nc2ccccc2)c1)NO + CC(CO)NC(=O)c1cc(-c2ccc(Cl)cc2)nn(-c2cnn(C)c2)c1=O | 1.49 | 1.52 | 1.51 | 1.32 | 0.909 | 89.9 | 91.5 | 79.6 | 50.1 | 89.8 | 84.8 | 79.4 | 51 | 96 | 101 | 80.8 | 50.6 | 81.3 | 86.5 | 74.1 | viability, T/C (second compound 0.1 µM, first compound 3.16 µM): 40.4%; viability, T/C (second compound 0.1 µM, first compound 10 µM): 10.1%; viability, T/C (second compound 0.316 µM, first compound 3.16 µM): 39.9%; viability, T/C (second compound 0.316 µM, first compound 10 µM): 9.03%; viability, T/C (second compound 1 µM, first compound 3.16 µM): 40.9%; viability, T/C (second compound 1 µM, first compound 10 µM): 9.28%; viability, T/C [16]: 48%; viability, T/C (second compound 3.16 µM, first compound 3.16 µM): 38.1%; viability, T/C (second compound 3.16 µM, first compound 10 µM): 8.4%; viability, T/C [17]: 86.5%; viability, T/C [18]: 79.1%; viability, T/C [19]: 68.1%; viability, T/C [20]: 43.5%; viability, T/C (second compound 10 µM, first compound 3.16 µM): 31.9%; viability, T/C (second compound 10 µM, first compound 10 µM): 6.06% |
